Test results reported in publication PMC8426295, “Cytotoxic and radiosensitising effects of a novel thioredoxin reductase inhibitor in breast cancer” (Investigational New Drugs, 2021).

What was measured:
Type in all cases: cell-based
TrxR = biological target: T1, TrxR (Homo sapiens, UniProt Q16881); test: Thioredoxin reductase activity assay (insulin reduction) on lysates of drug-treated breast cancer cells
T1 sequence (Q16881 1-649): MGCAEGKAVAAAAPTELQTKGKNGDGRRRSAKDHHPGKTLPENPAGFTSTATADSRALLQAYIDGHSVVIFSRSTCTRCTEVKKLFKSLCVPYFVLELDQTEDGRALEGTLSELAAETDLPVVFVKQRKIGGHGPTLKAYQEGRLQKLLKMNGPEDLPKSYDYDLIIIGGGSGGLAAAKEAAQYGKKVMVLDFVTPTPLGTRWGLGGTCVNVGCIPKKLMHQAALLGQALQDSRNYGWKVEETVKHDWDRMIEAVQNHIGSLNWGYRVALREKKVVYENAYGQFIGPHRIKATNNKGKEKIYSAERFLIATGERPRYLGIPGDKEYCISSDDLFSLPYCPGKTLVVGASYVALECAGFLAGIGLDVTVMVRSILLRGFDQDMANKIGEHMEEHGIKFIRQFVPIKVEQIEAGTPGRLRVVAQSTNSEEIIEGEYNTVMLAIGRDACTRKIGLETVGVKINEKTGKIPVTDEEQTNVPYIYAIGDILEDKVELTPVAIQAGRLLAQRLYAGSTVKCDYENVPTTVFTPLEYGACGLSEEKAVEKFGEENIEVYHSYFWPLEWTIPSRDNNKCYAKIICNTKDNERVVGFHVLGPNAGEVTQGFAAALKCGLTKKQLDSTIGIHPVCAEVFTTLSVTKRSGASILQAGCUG
Protocol: TrxR enzyme activity was assessed using an insulin reduction assay. Briefly, 2 × 10^6 cells were seeded, in triplicate, in 75c m^2 tissue culture flasks. After 24 h, sub-confluent cells were treated with either IQ9 (0–1000 nM) or 1000 nM auranofin (as a positive control) for 4 or 48 h, then trypsinised, washed, and resuspended in M-PER™ Mammalian Protein Extraction Reagent (ThermoFisher, USA) supplemented with 1X Halt protease inhibitor and EDTA. Protein concentration was determined using the Bradford assay. 80 μg of protein lysates isolated from each treatment conditions and reaction mix (HE buffer (100 mM HEPES pH 7.2, 5 mM EDTA), 20 μM Trx, 1.7 mM insulin, 10 mM β-NADPH) were added to the 96-well plate and incubated for 1 h at 37 °C. The reaction was stopped by adding stop buffer containing 6 M guanidine hydrochloride, 50 mM Tris, and 10 mM DTNB (Sigma, UK), with a final pH of 8.0. The plate was read at room temperature using a BMG Fluostar Optima Microplate Reader at 412 nm wavelength. The TrxR activity was expressed as the percentage of control, no drug-treated.

T47D cells [1] = test: Clonogenic survival assay; details: Homo sapiens
Protocol: (§1) 5 × 10^5 cells were seeded in T25 cm^2 tissue culture flasks and incubated overnight. The sub-confluent cells were then treated either for 4-h or 48-h with IQ9 (0–5000 nM) or doxorubicin (10–20 nM). Following drug treatment, cells were collected, counted, and plated at low-density, in triplicate, and incubated, at 37 °C, 5% CO2, undisturbed, for 2 weeks for TNBC cells and 3 weeks for luminal cells, for colony formation. Colonies were fixed (50% methanol in 0.9% saline solution) and stained (0.5% crystal violet solution). Colonies consisting of more than 50 cells were confirmed by microscopy and scored as survivors. The plating efficiency (PE) was calculated as numbers of colonies formed/ numbers of cells plated. For single-agent treatment, drug or radiation, the surviving fraction was calculated as: number of colonies formed/ (numbers of cell plated x PE). For drug radiation combination experiments, cytotoxicity of drug treatment was accounted for by calculating surviving fraction as: number of colonies formed from each radiation dose/ (number of cells plated × PE × surviving fraction of drug-treated cell at 0 Gy).
(§2) IC50 values were calculated from dose-response curves using an SPSS regression model between inhibition ratios and concentration gradients. The radiobiological parameters: alpha (α), beta (β), α/β ratio, and surviving fraction at 2 Gy (SF2) were extracted from the survival curves fitted using the LQ model. All results are presented as average ± standard deviation (SD) of three independent experiments, each performed in triplicate. Data were analysed using the student T-test and ANOVA one-way test. Statistical analysis was performed using SPSS 23.0 software. Values of P < 0.05 were considered statistically significant.

MDA-MB-436 cells [2] = test: Clonogenic survival assay; details: Homo sapiens
Protocol: as §1, §2

MDA-MB-468 cells [3] = test: Clonogenic survival assay; details: Homo sapiens
Protocol: as §1, §2

MCF-7 cells [4] = test: Clonogenic survival assay; details: Homo sapiens
Protocol: as §1, §2

MDA-MB-231 cells [5] = test: Clonogenic survival assay; details: Homo sapiens
Protocol: as §1, §2

T47D cells [6] = test: Cell proliferation assay (cell count); details: Homo sapiens, 48 h
Protocol: (§3) 1 × 10^5 cells (2 × 10^5 for T47D’s) were seeded, in triplicate, in 6-well plates and incubated overnight before being treated with IQ9 (0–5000 nM) or doxorubicin (400–600 nM) (positive control and comparator). Total cells were counted after 48 h using a haemocytometer. The total cell count in drug treatment wells was normalised as a percentage of the total cells in vehicle control wells.
as §2

MDA-MB-436 cells [7] = test: Cell proliferation assay (cell count); details: Homo sapiens, MDA-MB-436, 48 h
Protocol: as §3, §2

MDA-MB-468 cells [8] = test: Cell proliferation assay (cell count); details: Homo sapiens, MDA-MB-468, 48 h
Protocol: as §3, §2

MCF-7 cells [9] = test: Cell proliferation assay (cell count); details: Homo sapiens, MCF7, 48 h
Protocol: as §3, §2

MDA-MB-231 cells [10] = test: Cell proliferation assay (cell count); details: Homo sapiens, MDA-MB-231, 48 h
Protocol: as §3, §2

Q: Which results are given for COC1=CC(=O)c2c(c(COc3c(F)cc(F)cc3F)cn2C)C1=O [IQ9]?
A: inhibition of TrxR activity (TrxR; 1000 nM, 4 h, all TNBC cell lines): complete inhibition; inhibition at 1 µM (TrxR; 1000 nM, 4 h, luminal cell lines): ~70%; inhibition in TrxR activity (TrxR; 48 h exposure, T47D): no significant inhibition; IC50 (T47D cells [1]; 4 h): 2070 ± 53.7 nM; IC50 (T47D cells [1]; 48 h): 1880 ± 298 nM; IC50 (MDA-MB-436 cells [2]; MDA-MB-436, 4 h): 195 ± 4.5 nM; IC50 (MDA-MB-436 cells [2]; MDA-MB-436, 48 h): 236 ± 71.5 nM; IC50 (MDA-MB-468 cells [3]; MDA-MB-468, 4 h): 502 ± 171 nM; IC50 (MDA-MB-468 cells [3]; MDA-MB-468, 48 h): 916 ± 173 nM; IC50 (MCF-7 cells [4]; MCF7, 4 h): 340.5 ± 2.1 nM; IC50 (MCF-7 cells [4]; MCF7, 48 h): 601 ± 114 nM; IC50 (MDA-MB-231 cells [5]; MDA-MB-231, 4 h): 565 ± 29.5 nM; IC50 (MDA-MB-231 cells [5]; MDA-MB-231, 48 h): 324 ± 20.1 nM; IC50 (T47D cells [6]): 1430 ± 255 nM; IC50 (MDA-MB-436 cells [7]): 171 ± 81.4 nM; IC50 (MDA-MB-468 cells [8]): 425 ± 155 nM; IC50 (MCF-7 cells [9]): 379 ± 42.4 nM; IC50 (MDA-MB-231 cells [10]): 246 ± 55.3 nM
